Patent US9403845B2, “Pesticidally active pyridyl- and pyrimidyl- substituted pyrazole derivatives” (Syngenta Participations AG, priority 2012, dated 2016)

Key:
[1] = system: Myzus persicae (Green Peach Aphid); test: Activity against Myzus persicae (green peach aphid), mixed population, feeding/residual contact activity, preventive; assay type: in vivo; settings: foliar, 144 h, sprayed sunflower leaf discs, aphid population of mixed ages, 6 days incubation
Text: Activity Against Myzus persicae (Green Peach Aphid)
(Mixed Population, Feeding/Residual Contact Activity, Preventive)

[2] = system: Bemisia tabaci (Cotton White Fly); test: Activity against Bemisia tabaci (cotton white fly), feeding/residual contact activity, preventive; assay type: in vivo; settings: foliar, 144 h, sprayed cotton leaf discs, 12 to 18 adults, 6 days after infestation, read-out: activity (mortality and special effects)
Experimental: Activity Against Bemisia tabaci (Cotton White Fly)
(Feeding/Residual Contact Activity, Preventive)
Cotton leaf discs were placed on agar in a 24-well microtiter plate and sprayed with test solutions. After drying, the leaf discs were infested with 12 to 18 adults. After an incubation period of 6 days after infestation, samples were checked for mortality and special effects (e.g. phytotoxicity).

melting point [°C]	Compound	mortality at 200 ppm [1] [%]	mortality at 200 ppm [2] [%]
128 to 130	CC(C)O/N=C1\CCCc2ccc(-c3cnn(-c4cccnc4)c3)nc21 (single isomer, unassigned) [Compound 1.005, 2-(1-pyridin-3-yl-1H-pyrazol-4-yl)-6,7-dihydro-5H-quinolin-8-one O-isopropyl-oxime]		
	CON=C1c2nc(-c3cnn(-c4cccnc4)c3)ccc2N(C)S(=O)(=O)C1(C)C (single isomer, unassigned) [Compound 8.004, N-methoxy-1,3,3-trimethyl-2,2-dioxo-6-[1-(3-pyridyl)pyrazol-4-yl]pyrido[3,2-c]thiazin-4-imine]	> 80	> 80
	CO/N=C1\CCOc2ccc(-c3cnn(-c4cccnc4)c3)nc21 [Compound 1.008, N-methoxy-6-[1-(3-pyridyl)pyrazol-4-yl]-2,3-dihydropyrano[3,2-b]pyridin-4-imine]	> 80	> 80
	CO/N=C1\CCCc2sc(-c3cnn(-c4cccnc4)c3)nc21 [Compound 3.002, N-methoxy-2-[1-(3-pyridyl)pyrazol-4-yl]-6,7-dihydro-5H-1,3-benzothiazol-4-imine]	> 80	
	CC(=O)N/N=C1\CCCc2ccc(-c3cnn(-c4cccnc4)c3)nc21 [Compound 6.007, acetic acid [2-(1-pyridin-3-yl-1H-pyrazol-4-yl)-6,7-dihydro-5H-quinolin-ylidene]-hydrazide]	> 80	
	O=C1CCCc2ccc(-c3cnn(-c4cccnc4)c3)nc21 [Compound 7.002, 2-(1-pyridin-3-yl-1H-pyrazol-4-yl)-6,7-dihydro-5H-quinolin-8-one]		> 80
	O=C1CCOc2ccc(-c3cnn(-c4cccnc4)c3)nc21 [Compound 7.004, 6-[1-(3-pyridyl)pyrazol-4-yl]-2,3-dihydropyrano[3,2-b]pyridin-4-one]	> 80	> 80
	CCO/N=C1\CS(=O)(=O)N(C)c2ccc(-c3cnn(-c4cccnc4)c3)nc21 [Compound 8.003, N-ethoxy-2-hydroxy-1-methyl-2-oxo-6-[1-(3-pyridyl)pyrazol-4-yl]pyrido[3,2-c]thiazin-4-imine]	> 80	> 80
	CN1Cc2ccc(-c3cnn(-c4cccnc4)c3)nc2C1=O [Compound 9.001]	> 80	
> 300	Cn1c(=O)c2c(nc(-c3cnn(-c4cccnc4)c3)n2C)n(C)c1=O [Compound 9.002]		
	CC1CCc2ccc(-c3cnn(-c4cccnc4)c3)nc2C1=O (stereo not shown) [Compound 9.003]	> 80	> 80
